Read-outs that look alike come from different tables or passages of the source.
How the values were obtained:
[1] = Compound A pharmacokinetics after oral administration of a single dose with and without ritonavir, human subjects, fed; type: in vivo; settings: for Ae % (drug recovered unchanged in urine, percent of administered dose): arithmetic mean
[2] = as above; type: in vivo; settings: for half-life / Cmax / AUC / Tmax: plasma, po; for half-life / Ae % (drug recovered unchanged in urine, percent of administered dose): arithmetic mean; for Cmax / AUC: geometric mean; for AUC: read-out: AUC (area under the concentration-time curve from time 0 to infinity); for Tmax: median
Method: Nos. 11/008325, filed Dec. 8, 2004, and 60/591,351, filed Jul. 26, 2004, all of which are hereby incorporated by reference for this purpose. A total of 30 human subjects were administered a single 100 mg, 300 mg, 800 mg, 1000 mg, 1500 mg, 2000 mg, or 3000 mg dose of a spray-dried composition comprising 90 wt % amorphous Compound A and 10 wt % hydroxypropyl methyl cellulose acetate succinate (HPMCAS), under fed conditions according to the schedule found in Table I. […] Each plasma sample was analyzed for the presence of Compound A and the following pharmacokinetic parameters for Compound A were determined for each subject: area under the concentration-time curve from time 0 extrapolated to infinity (AUC), maximum observed plasma concentration (Cmax), time to first occurrence of Cmax (Tmax), terminal phase plasma half-life (t1/2), and cumulative amount of drug recovered unchanged in the urine expressed as a percentage of administered dose (Ae %). The mean to t1/2 value for the 100 mg dose group was calculated from three subjects. The t1/2 values for three subjects at this dose level were deemed unreliable owing to poor estimates of the terminal phase rate constant from regressions (r^2 values less than 0.9) and, therefore, were not included in the summary statistics. Similarly, the th for one subject in the 800 mg dose group was deemed unreliable owing to poor estimate of the terminal phase rate constant from regression (r^2 values less than 0.9) and therefore was not included in the summary statistics.

[3] = single oral dose 400 mg + ritonavir (100 mg every 12 hours for 3 doses)
[4] = single oral dose 800 mg + ritonavir (100 mg every 12 hours for 3 doses)
[5] = 100 mg, single oral dose 100 mg, without ritonavir
[6] = 300 mg, single oral dose 300 mg, without ritonavir
[7] = 800 mg, single oral dose 800 mg, without ritonavir
[8] = 1000 mg, single oral dose 1000 mg, without ritonavir
[9] = 1500 mg, single oral dose 1500 mg, without ritonavir
[10] = 2000 mg, single oral dose 2000 mg, without ritonavir
[11] = 3000 mg, single oral dose 3000 mg, without ritonavir

C=CCNC(=O)[C@H]1N(C(=O)[C@@H](O)[C@H](Cc2ccccc2)NC(=O)c2cccc(O)c2C)CSC1(C)C [Compound A, (4R)-N-allyl-3-{(2S,3S)-2-hydroxy-3-[(3-hydroxy-2-methylbenzoyl)amino]-4-phenylbutanoyl}-5,5-dimethyl-1,3-thiazolidine-4-carboxamide]
AUC ([1]; plasma, single oral dose 400 mg + ritonavir (100 mg every 12 hours for 3 doses), geometric mean, read-out: AUC (area under the concentration-time curve from time 0 to infinity)): 42500 ng·h/mL | Ae % (drug recovered unchanged in urine, percent of administered dose) [1, 3]: 20.4% | Ae % (drug recovered unchanged in urine, percent of administered dose) [1, 4]: 19.4% | AUC (area under the concentration-time curve from time 0 to infinity) ([1]; single oral dose 800 mg + ritonavir (100 mg every 12 hours for 3 doses), geometric mean): 71.4 µg·h/mL | half-life ([2]; 100 mg, single oral dose 100 mg, without ritonavir, N = 3, read-out: t½ (terminal phase plasma half-life) (converted)): 518 min | Cmax [2, 5]: 160 ng/mL | AUC [2, 5]: 740 ng·h/mL | Tmax [2, 5]: 3 h | half-life ([2]; 300 mg, single oral dose 300 mg, without ritonavir, read-out: t½ (terminal phase plasma half-life) (converted)): 490 min | Cmax [2, 6]: 720 ng/mL | AUC [2, 6]: 3560 ng·h/mL | Tmax [2, 6]: 2.5 h | half-life ([2]; 800 mg, single oral dose 800 mg, without ritonavir, N = 5, read-out: t½ (terminal phase plasma half-life) (converted)): 702 min | Cmax [2, 7]: 3120 ng/mL | AUC [2, 7]: 15800 ng·h/mL | Tmax [2, 7]: 3 h | half-life ([2]; 1000 mg, single oral dose 1000 mg, without ritonavir, read-out: t½ (terminal phase plasma half-life) (converted)): 437 min | Cmax [2, 8]: 3350 ng/mL | AUC [2, 8]: 16900 ng·h/mL | Tmax [2, 8]: 3 h | half-life ([2]; 1500 mg, single oral dose 1500 mg, without ritonavir, read-out: t½ (terminal phase plasma half-life) (converted)): 550 min | Cmax [2, 9]: 7040 ng/mL | AUC [2, 9]: 41900 ng·h/mL | Tmax [2, 9]: 4 h | half-life ([2]; 2000 mg, single oral dose 2000 mg, without ritonavir, read-out: t½ (terminal phase plasma half-life) (converted)): 624 min | Cmax [2, 10]: 7490 ng/mL | AUC [2, 10]: 44200 ng·h/mL | Tmax [2, 10]: 2 h | half-life ([2]; 3000 mg, single oral dose 3000 mg, without ritonavir, read-out: t½ (terminal phase plasma half-life) (converted)): 456 min | Cmax [2, 11]: 11200 ng/mL | AUC [2, 11]: 86400 ng·h/mL | Tmax [2, 11]: 4 h | half-life ([2]; single oral dose 400 mg + ritonavir (100 mg every 12 hours for 3 doses), read-out: t½ (terminal phase plasma half-life) (converted)): 514 min | Cmax [2, 3]: 5210 ng/mL | Tmax [2, 3]: 3.51 h | half-life ([2]; single oral dose 800 mg + ritonavir (100 mg every 12 hours for 3 doses), read-out: t½ (terminal phase plasma half-life) (converted)): 503 min | Cmax [2, 4]: 7350 ng/mL | Tmax [2, 4]: 4 h | Ae % (drug recovered unchanged in urine, percent of administered dose) ([2]; single oral dose 100 mg, without ritonavir): 1.34% | Ae % (drug recovered unchanged in urine, percent of administered dose) ([2]; single oral dose 300 mg, without ritonavir): 2.04% | Ae % (drug recovered unchanged in urine, percent of administered dose) ([2]; single oral dose 800 mg, without ritonavir): 4.00% | Ae % (drug recovered unchanged in urine, percent of administered dose) ([2]; single oral dose 1000 mg, without ritonavir): 4.21% | Ae % (drug recovered unchanged in urine, percent of administered dose) ([2]; single oral dose 2000 mg, without ritonavir): 7.92% | Ae % (drug recovered unchanged in urine, percent of administered dose) ([2]; single oral dose 3000 mg, without ritonavir): 9.05%

Source: patent US20050171037A1, “Therapeutic combinations” (Agouron Pharmaceuticals, Inc., priority 2004, published 2005)
